Assay results as given in the NIST ThermoML archive (doi:10.1021/je800571y).

Assay: xn = mol fraction of the nth substance listed
Details: 101 kPa, Liquid

CCC(C)=O [butanone] + CC(C)O
Details	mass density, 293.15 K [kg/m3]	mass density, 298.15 K [kg/m3]	mass density, 303.15 K [kg/m3]	mass density, 308.15 K [kg/m3]	mass density, 313.15 K [kg/m3]	viscosity, 293.15 K [mPa·s]	viscosity, 298.15 K [mPa·s]	viscosity, 303.15 K [mPa·s]	viscosity, 308.15 K [mPa·s]	viscosity, 313.15 K [mPa·s]
x1 = 0.0562	786.4	782.34	778.9	773.52	769.21	–	–	–	–	–
x1 = 0.0595	–	–	–	–	–	1.816	1.596	1.413	1.272	1.165
x1 = 0.1136	787.47	783.31	779.85	774.58	770.17	–	–	–	–	–
x1 = 0.1282	–	–	–	–	–	1.504	1.362	1.207	1.095	1.003
x1 = 0.1724	788.54	784.36	780.81	775.58	771.13	1.294	1.185	1.046	0.9637	0.8693
x1 = 0.2326	789.67	785.46	781.82	776.64	772.12	1.103	0.9992	0.9083	0.8366	0.774
x1 = 0.2941	790.83	786.59	782.85	777.7	773.13	0.9668	0.8812	0.8021	0.7488	0.6929
x1 = 0.3571	792.05	787.74	783.91	778.8	774.16	–	–	–	–	–
x1 = 0.3572	–	–	–	–	–	0.852	0.7675	0.7154	0.6663	0.6169
x1 = 0.4217	793.29	788.95	785.01	779.92	775.21	0.7693	0.6949	0.6406	0.5987	0.5567
x1 = 0.4878	794.6	790.18	786.14	781.07	776.27	0.7113	0.6289	0.5816	0.5428	0.4753
x1 = 0.5555	795.96	791.44	787.29	782.24	777.37	–	–	–	–	–
x1 = 0.5556	–	–	–	–	–	0.6609	0.5801	0.5303	0.4834	0.4406
x1 = 0.625	797.35	792.74	788.49	783.44	778.48	0.6072	0.5071	0.4848	0.4314	0.3846
x1 = 0.6962	798.79	794.08	789.7	784.66	779.61	0.5511	0.4516	0.4355	0.3751	0.3302
x1 = 0.7692	800.26	795.45	790.95	785.91	780.76	–	–	–	–	–
x1 = 0.7693	–	–	–	–	–	0.5144	0.3852	0.3866	0.3345	0.316
x1 = 0.8442	801.6	796.86	792.21	787.18	781.93	0.4675	0.353	0.3359	0.306	0.286
x1 = 0.9211	803.3	798.3	793.51	788.48	783.12	0.4293	0.3262	0.2972	0.2758	0.2706
x1 = 1	804.92	799.7	794.81	789.78	784.32	–	0.2828	0.2666	0.2601	0.2545

CCC(C)(C)O [2-methylbutan-2-ol] + CCC(C)=O
Details	mass density, 293.15 K [kg/m3]	mass density, 298.15 K [kg/m3]	mass density, 303.15 K [kg/m3]	mass density, 308.15 K [kg/m3]	mass density, 313.15 K [kg/m3]	viscosity, 293.15 K [mPa·s]	viscosity, 298.15 K [mPa·s]	viscosity, 303.15 K [mPa·s]	viscosity, 308.15 K [mPa·s]	viscosity, 313.15 K [mPa·s]
x2 = 0	809.61	805.01	800.41	795.81	791.21	5.108	4.474	3.909	3.387	2.909
x2 = 0.0803	809.22	804.57	799.94	795.3	790.63	3.81	3.35	2.9	2.521	2.26
x2 = 0.1583	808.84	804.15	799.49	794.82	790.09	2.862	2.521	2.14	1.905	1.7
x2 = 0.2341	808.48	803.74	799.06	794.36	789.57	2.105	1.85	1.53	1.421	1.287
x2 = 0.3077	808.13	803.35	798.85	793.92	789.06	1.558	1.37	1.09	1.103	0.9819
x2 = 0.3794	807.79	802.97	798.25	793.49	788.57	1.15	1.054	–	0.84	0.7418
x2 = 0.449	807.47	802.6	797.86	793.07	788.09	0.842	0.8221	0.6863	0.7188	0.5869
x2 = 0.5168	807.16	802.24	797.48	792.67	787.63	0.6725	0.6579	0.5601	0.5865	0.4801
x2 = 0.5828	806.85	801.89	796.12	792.27	787.18	0.5515	0.5913	0.5201	0.5202	0.4017
x2 = 0.6471	806.56	801.56	796.77	791.89	786.74	0.4986	0.5219	0.52	0.4801	0.3511
x2 = 0.7097	806.27	801.23	796.43	791.52	786.32	0.4935	0.4894	0.48	0.4507	–
x2 = 0.7707	805.99	800.91	796.08	791.15	785.9	0.4482	0.4437	0.4801	0.4505	0.323
x2 = 0.8302	805.71	800.6	795.75	790.79	785.49	0.4457	0.4344	0.4802	0.4503	0.3001
x2 = 0.8882	805.45	800.29	795.42	790.44	785.09	0.4464	0.3813	0.4402	0.4012	0.2999
x2 = 0.9448	805.18	799.99	795.11	790.1	784.7	0.4338	0.3142	0.3601	0.32	0.2997
